In experiment [1] the target is T1, TRPV3 I637 alanine mutation (Homo sapiens, UniProt Q8NET8, I637A).
T1 construct: YFP or GFP; expressed in transfected cells; host or cells: HEK293T
T1 sequence (Q8NET8 1-790 I637A): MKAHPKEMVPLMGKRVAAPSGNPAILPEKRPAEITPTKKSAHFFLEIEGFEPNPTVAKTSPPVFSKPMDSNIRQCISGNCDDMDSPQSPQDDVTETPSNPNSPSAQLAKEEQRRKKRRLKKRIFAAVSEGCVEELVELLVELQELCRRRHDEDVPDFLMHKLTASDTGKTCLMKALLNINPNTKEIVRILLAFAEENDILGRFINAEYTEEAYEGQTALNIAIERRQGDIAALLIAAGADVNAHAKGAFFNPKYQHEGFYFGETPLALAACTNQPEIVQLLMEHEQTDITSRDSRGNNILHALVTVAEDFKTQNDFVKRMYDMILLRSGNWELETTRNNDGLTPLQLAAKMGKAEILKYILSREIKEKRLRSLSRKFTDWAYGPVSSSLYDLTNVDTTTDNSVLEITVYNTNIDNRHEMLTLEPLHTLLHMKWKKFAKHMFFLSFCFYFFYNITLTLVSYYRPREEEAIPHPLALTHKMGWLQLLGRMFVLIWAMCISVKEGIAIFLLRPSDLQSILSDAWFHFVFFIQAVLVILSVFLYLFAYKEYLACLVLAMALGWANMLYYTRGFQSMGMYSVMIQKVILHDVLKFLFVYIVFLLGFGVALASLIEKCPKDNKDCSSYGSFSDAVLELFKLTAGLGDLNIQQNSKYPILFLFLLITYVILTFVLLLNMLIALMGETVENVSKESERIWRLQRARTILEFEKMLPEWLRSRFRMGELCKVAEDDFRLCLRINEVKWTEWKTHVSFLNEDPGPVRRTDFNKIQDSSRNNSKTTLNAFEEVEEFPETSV
As to the kind of experiment: Whole-cell recording of TRPV3 I637 alanine mutant. The experiment is classed as cell-based. The settings on record: 1 mM 2-APB, ± 80 mV. From the text:
(§1) As we mentioned above, HCQ may act as a pore blocker of TRPV3. To probe the binding configuration of HCQ to TRPV3, we carried out molecular docking using Rosetta suite (https://rosettacommons.org) ([21]) and validated the docking models with point mutations in TRPV3 (Fig. 4A). […] Furthermore, when we introduced L670A to L591A mutant, we also observed a left shift on the concentration–response curve on this double mutant as compared to L591A mutant (Fig. 4H).
(§2) Figure 4 Residues of the pore domain are critical for HCQ inhibition on TRPV3.A, left panel, docking model of HCQ to the pore domain of TRPV3 structure (6uw4). Right panels, top view and side view of the HCQ-binding pocket. B-J, representative whole-cell recording of TRPV3 and mutants in response to 1 mM 2-APB, the mixture of 1 mM 2-APB and concentration gradients of HCQ with the holding potential of ± 80 mV. K, concentration–response curves of HCQ in WT TRPV3 and mutants (n = 3–5 cells). L, quantification of the inhibitory ratio of HCQ (100 μM) on WT, L591A, and N671Q. […]
All data from whole-cell recordings were analyzed in Igor Pro (WaveMetrics). IC50 values were determined by fitting the Hill equation to concentration-response relationships. […]

Experiment [2] addresses T2, TRPV3 L670A + L591A double mutant (Homo sapiens, UniProt Q8NET8, L591A/L670A).
T2 construct: YFP or GFP; expressed in transfected cells; host or cells: HEK293T
T2 sequence (Q8NET8 1-790 L591A/L670A): T1 sequence (Q8NET8 1-790 I637A) with L591A, A637I, L670A
The experiment can be described thus: Whole-cell recording of TRPV3 L591A/L670A double mutant. The experiment is classed as cell-based. Particulars: L670A introduced to L591A mutant.
Description: as §1
as §2, with “N671Q. Data are presented as mean ± SEM (n = 3–6 cells); F (2, 10) = 8.115, p = 0.0081 by one-way ANOVA using Dunnett’s multiple comparisons test. ∗∗, p = 0.0070 WT versus L591A; ∗, p = 0.0100 WT versus N671Q. 2-APB, 2-aminoethoxydiphenylborate; HCQ, hydroxychloroquine; TRP, transient receptor potential; TRPV3, transient receptor potential vanilloid 3 channel.” for “N671Q.”

Residue numbers refer to the chain shown, from its start.

In experiment [1], `CCN(CCO)CCCC(C)Nc1ccnc2cc(Cl)ccc12` (centres unmarked) [HCQ, hydroxychloroquine] registered an IC50 of 140 ± 20 nM. Also, the “shift of concentration–response curve on double mutant as compared to L591A mutant” value in experiment [2] is recorded as “left shift”.

(Values after publication PMC11460631, “Inhibition of transient receptor potential vanilloid 3 channels by antimalarial hydroxychloroquine alleviates TRPV3-dependent dermatitis” (The Journal of Biological Chemistry, 2024).)
